Data on 28 compounds can be found in the NIST ThermoML archive (doi:10.1021/je300692s).

± gives the expanded uncertainty stated by the source.

The nature of the data set: activity coefficient (dimensionless); of the first substance listed, at infinite dilution; xn = mol fraction of the nth substance listed. To be noted: 101 kPa, Liquid, Chromatography, x1 = 0.

For `CC(C)CO` [2-methyl-1-propanol] + CCCCCC[N+]1(C)CCCC1.O=S(=O)([N-]S(=O)(=O)C(F)(F)F)C(F)(F)F, the activity coefficient (322.9 K) was determined as 1.87 ± 0.11, the activity coefficient (333 K) amounted to 2.67 ± 0.16 and the activity coefficient (343.1 K) was 1.65 ± 0.1.

For the compound `CC1CCCCC1` [methylcyclohexane] + CCCCCC[N+]1(C)CCCC1.O=S(=O)([N-]S(=O)(=O)C(F)(F)F)C(F)(F)F, the activity coefficient is 6.57 ± 0.69 (322.9 K), 6.07 ± 0.64 (333 K) and 6.03 ± 0.63 (343.1 K).

On to `ClCCl` [dichloromethane] + CCCCCCCCCC[N+]1(C)CCCC1.O=S(=O)([N-]S(=O)(=O)C(F)(F)F)C(F)(F)F, for which the activity coefficient (322.6 K) turned out to be 0.27 ± 0.04, the activity coefficient (332.5 K) was 0.3 ± 0.04 and the activity coefficient (342.8 K) was found to be 0.3 ± 0.04.

With `Cc1ccccc1` [toluene] + CCCCCC[N+]1(C)CCCC1.O=S(=O)([N-]S(=O)(=O)C(F)(F)F)C(F)(F)F, the activity coefficient by setting is: (322.9 K) 1 ± 0.1; (333 K) 1.01 ± 0.1; (343.1 K) 1.04 ± 0.11.

As for `CCOCC` [diethyl ether] + CCCCCCCCCC[N+]1(C)CCCC1.O=S(=O)([N-]S(=O)(=O)C(F)(F)F)C(F)(F)F, the activity coefficient runs as follows: (322.6 K) 1.27 ± 0.13; (332.5 K) 1.25 ± 0.13; (342.8 K) 1.25 ± 0.13.

Regarding `Cc1ccc(C)cc1` [1,4-dimethylbenzene] + CCCCCC[N+]1(C)CCCC1.O=S(=O)([N-]S(=O)(=O)C(F)(F)F)C(F)(F)F, the activity coefficient amounted to 1.35 ± 0.14 (322.9 K), 1.4 ± 0.14 (333 K) and 1.42 ± 0.15 (343.1 K).

For the compound `ClC(Cl)Cl` [trichloromethane] + CCCCCC[N+]1(C)CCCC1.O=S(=O)([N-]S(=O)(=O)C(F)(F)F)C(F)(F)F, the activity coefficient reads like this: (322.9 K) 0.68 ± 0.07; (333 K) 0.72 ± 0.08; (343.1 K) 0.74 ± 0.08.

Take `Cc1ccccc1C` [1,2-dimethylbenzene] + CCCCCC[N+]1(C)CCCC1.O=S(=O)([N-]S(=O)(=O)C(F)(F)F)C(F)(F)F: the activity coefficient is, setting by setting: (322.9 K) 1.17 ± 0.12; (333 K) 1.28 ± 0.13; (343.1 K) 1.31 ± 0.13.

Consider `CCC(C)=O` [butanone] + CCCCCCCCCC[N+]1(C)CCCC1.O=S(=O)([N-]S(=O)(=O)C(F)(F)F)C(F)(F)F, for which the activity coefficient (322.6 K) is 0.39 ± 0.05, the activity coefficient (332.5 K) was found to be 0.37 ± 0.04 and the activity coefficient (342.8 K) is 0.34 ± 0.04.

Regarding `CC(C)OC(C)C` [diisopropyl ether] + CCCCCCCC[N+]1(C)CCCC1.O=S(=O)([N-]S(=O)(=O)C(F)(F)F)C(F)(F)F, the activity coefficient is 2.57 ± 0.27 (323 K), 2.58 ± 0.27 (333 K) and 2.26 ± 0.24 (343.1 K).

As for `CCCO` [propan-1-ol] + CCCCCCCCCC[N+]1(C)CCCC1.O=S(=O)([N-]S(=O)(=O)C(F)(F)F)C(F)(F)F, the activity coefficient by setting is: (322.6 K) 1.62 ± 0.17; (332.5 K) 1.47 ± 0.15; (342.8 K) 1.32 ± 0.14.

In the case of `CCCCCCC` [heptane] + CCCCCCCC[N+]1(C)CCCC1.O=S(=O)([N-]S(=O)(=O)C(F)(F)F)C(F)(F)F, the activity coefficient is 6.4 ± 0.67 (323 K), 6.06 ± 0.64 (333 K) and 5.13 ± 0.54 (343.1 K).

`CCC(=O)CC` [pentan-3-one] + CCCCCCCCCC[N+]1(C)CCCC1.O=S(=O)([N-]S(=O)(=O)C(F)(F)F)C(F)(F)F: the activity coefficient was determined as 0.47 ± 0.05 (322.6 K), 0.48 ± 0.05 (332.5 K) and 0.5 ± 0.06 (342.8 K).

Take `CCCCO` [butan-1-ol] + CCCCCCCCCC[N+]1(C)CCCC1.O=S(=O)([N-]S(=O)(=O)C(F)(F)F)C(F)(F)F: the activity coefficient (322.6 K) was found to be 2.2 ± 0.23, the activity coefficient (332.5 K) amounted to 1.85 ± 0.19 and the activity coefficient (342.8 K) was determined as 1.64 ± 0.17.

In the case of `CCCCCCCC` [octane] + CCCCCC[N+]1(C)CCCC1.O=S(=O)([N-]S(=O)(=O)C(F)(F)F)C(F)(F)F, the activity coefficient (322.9 K) was found to be 14.2 ± 1.5, the activity coefficient (333 K) is 13.4 ± 1.4 and the activity coefficient (343.1 K) worked out at 12.9 ± 1.4.

In the case of `CCC(C)CC` [3-methylpentane] + CCCCCC[N+]1(C)CCCC1.O=S(=O)([N-]S(=O)(=O)C(F)(F)F)C(F)(F)F, the activity coefficient is, setting by setting: (322.9 K) 6.52 ± 0.69; (333 K) 6.46 ± 0.68; (343.1 K) 6.37 ± 0.67.

Turning to `CO` [methanol] + CCCCCCCC[N+]1(C)CCCC1.O=S(=O)([N-]S(=O)(=O)C(F)(F)F)C(F)(F)F, the activity coefficient runs as follows: (323 K) 0.97 ± 0.1; (333 K) 1.09 ± 0.11; (343.1 K) 0.71 ± 0.07.

On to `CCC(C)CC` [3-methylpentane] + CCCCCCCCCC[N+]1(C)CCCC1.O=S(=O)([N-]S(=O)(=O)C(F)(F)F)C(F)(F)F, for which the activity coefficient by setting is: (322.6 K) 3.65 ± 0.38; (332.5 K) 3.36 ± 0.35; (342.8 K) 3.4 ± 0.36.

Regarding `Cc1ccccc1C` [1,2-dimethylbenzene] + CCCCCCCC[N+]1(C)CCCC1.O=S(=O)([N-]S(=O)(=O)C(F)(F)F)C(F)(F)F, the activity coefficient reads like this: (323 K) 0.92 ± 0.09; (333 K) 0.87 ± 0.09; (343.1 K) 0.97 ± 0.1.

`CC1CCCCC1` [methylcyclohexane] + CCCCCCCC[N+]1(C)CCCC1.O=S(=O)([N-]S(=O)(=O)C(F)(F)F)C(F)(F)F: the activity coefficient is 4.22 ± 0.44 (323 K), 4.04 ± 0.42 (333 K) and 3.9 ± 0.41 (343.1 K).

`CCCCCCC` [heptane] + CCCCCC[N+]1(C)CCCC1.O=S(=O)([N-]S(=O)(=O)C(F)(F)F)C(F)(F)F: the activity coefficient amounted to 10.6 ± 1.1 (322.9 K), 9.43 ± 0.99 (333 K) and 9.58 ± 1 (343.1 K).

On to `CCCCCCCCCCC` [undecane] + CCCCCCCCCC[N+]1(C)CCCC1.O=S(=O)([N-]S(=O)(=O)C(F)(F)F)C(F)(F)F, for which the activity coefficient is, setting by setting: (322.6 K) 11.7 ± 1.2; (332.5 K) 11.2 ± 1.2; (342.8 K) 10.7 ± 1.1.

In the case of `c1ccsc1` [thiophene] + CCCCCCCC[N+]1(C)CCCC1.O=S(=O)([N-]S(=O)(=O)C(F)(F)F)C(F)(F)F, the activity coefficient amounted to 0.57 ± 0.06 (323 K), 0.55 ± 0.06 (333 K) and 0.53 ± 0.06 (343.1 K).

Regarding `C1COCCO1` [1,4-dioxane] + CCCCCCCC[N+]1(C)CCCC1.O=S(=O)([N-]S(=O)(=O)C(F)(F)F)C(F)(F)F, the activity coefficient turned out to be 0.32 ± 0.04 (323 K), 0.6 ± 0.06 (333 K) and 0.31 ± 0.04 (343.1 K).

`c1ccccc1` [benzene] + CCCCCCCCCC[N+]1(C)CCCC1.O=S(=O)([N-]S(=O)(=O)C(F)(F)F)C(F)(F)F: the activity coefficient by setting is: (322.6 K) 0.62 ± 0.07; (332.5 K) 0.63 ± 0.07; (342.8 K) 0.64 ± 0.07.

With `CC(C)O` [propan-2-ol] + CCCCCCCCCC[N+]1(C)CCCC1.O=S(=O)([N-]S(=O)(=O)C(F)(F)F)C(F)(F)F, the activity coefficient is, setting by setting: (322.6 K) 1.52 ± 0.16; (332.5 K) 1.38 ± 0.14; (342.8 K) 1.25 ± 0.13.

For the compound `CC1CCCCC1` [methylcyclohexane] + CCCCCCCCCC[N+]1(C)CCCC1.O=S(=O)([N-]S(=O)(=O)C(F)(F)F)C(F)(F)F, the activity coefficient runs as follows: (322.6 K) 3.38 ± 0.36; (332.5 K) 3.28 ± 0.34; (342.8 K) 3.15 ± 0.33.

On to `CC(C)OC(C)C` [diisopropyl ether] + CCCCCC[N+]1(C)CCCC1.O=S(=O)([N-]S(=O)(=O)C(F)(F)F)C(F)(F)F, for which the activity coefficient was found to be 3.18 ± 0.33 (322.9 K), 3.56 ± 0.37 (333 K) and 3.53 ± 0.37 (343.1 K).
